Results taken from patent US20260297042A1, “BIARYLAMIDE DERIVATIVES AND THEIR USE AS PKMYT1 INHIBITORS” (CANCER RESEARCH TECHNOLOGY LIMITED, priority 2023, published 2026).

Legend:
Human PKMYT1 = biological target: T1, Human PKMYT1 (Homo sapiens, UniProt Q99640); test: PKMYT1 biochemical ADP-Glo enzymatic assay; settings: ADP-Glo
T1 construct: Human PKMYT1 75-362 was cloned as a TEV cleavable 6xHis fusion; 6xHis (TEV cleavable) (cleaved yes); made in house; host or cells: bacterial cells
T1 sequence (Q99640 75-362): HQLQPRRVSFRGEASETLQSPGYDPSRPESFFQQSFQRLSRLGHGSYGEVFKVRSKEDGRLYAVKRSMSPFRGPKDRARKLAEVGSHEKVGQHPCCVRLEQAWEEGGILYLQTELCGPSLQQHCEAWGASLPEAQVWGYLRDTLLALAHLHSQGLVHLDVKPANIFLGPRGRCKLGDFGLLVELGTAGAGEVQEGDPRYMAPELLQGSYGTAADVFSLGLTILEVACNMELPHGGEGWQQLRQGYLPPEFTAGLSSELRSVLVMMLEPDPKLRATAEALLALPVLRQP
In short: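 IC50 values come from 10-point 3-fold series, with replicates required within 3-fold and r2 >0.9. ADP formed by PKMYT1 intrinsic ATPase (500 uM ATP, 60 min, 26° C.) was quantified by ADP-Glo luminescence. The enzyme was the TEV-cleaved kinase domain 75-362 at 15 nM, in HEPES pH 7.5 buffer.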

WEE1 = biological target: T2, WEE1 (Homo sapiens, UniProt P30291); test: Selectivity versus WEE1 assay (ADP-Glo enzymatic assay); assay type: biochemical; settings: for IC50: ADP-Glo; for PKMYT1 vs. WEE1 selectivity: fold difference in selectivity for PKMYT1 over WEE1
T2 construct: purchased Thermo Fisher PR7373A
In short: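 ADP-Glo luminescent read-out after a 60-min, 26 °C kinase reaction of 15 nM WEE1 with 30 µM ATP, in HEPES pH 7.5 buffer containing MgCl2, EGTA, Brij-35 and 1% DMSO. IC50 accepted only when replicate values agree within 3-fold and curve fit r2 exceeds 0.9.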

[1] = tested on: h-TERT-RPE1 TP53−/− CCNE1 high expressing clone cell line 7 (CL7); test: Nuclear count cell proliferation assay, CCNE1 high expressing clone cell line 7 (CL7) of h-TERT-RPE1 TP53−/−; assay type: cell-based; settings: banded; for Selectivity Ratio Wt vs. CL7: GI50 ratio RPE Wt vs. CL7, >N = at least in this band; for GI50: hTERT-RPE1, h-TERT-RPE1 TP53−/− CCNE1 high clone CL7, nuclear count, around 6 population doublings, read-out: RPE CL7 GI50
Procedure: (§1) h-TERT-RPE1 TP53−/− and CCNE1 high expressing clones (clone cell lines 7 and 15) were treated with test compounds dissolved in DMSO at serially diluted concentrations alongside a DMSO only control for around 6 population doublings time. Cells were then fixed with 4% Paraformaldehyde and the cell nuclei were stained with DAPI (Sigma D9542). Images covering each well were acquired by an Opera Phenix® High-Content Screening System (PerkinElmer). Image analysis was performed using Harmony® high-content analysis software (PerkinElmer). Data analysis was performed using Microsoft Excel® and GI50 estimates generated with GraphPad Prism v9. Percent nuclear count was compared to vehicle control wells and used to measure inhibition of proliferation.

[2] = tested on: h-TERT-RPE1 TP53−/− parental cells; test: Nuclear count cell proliferation assay, parental (wild type) h-TERT-RPE1 TP53−/− cells; assay type: cell-based; settings: hTERT-RPE1, h-TERT-RPE1 TP53−/− parental (Wt), around 6 population doublings, banded, read-out: RPE Wt GI50
Procedure: as §1

[3] = biological target: T3, Cellular PKMYT1 Biomarker CDK1 pT14 (Homo sapiens, UniProt Q99640); test: Inhibition of cellular PKMYT1 biomarker CDK1 pT14 in OVCAR 3 cells (immunoblot); assay type: cell-based; settings: 20 hours incubation
T3 construct: read-out CDK1 phospho-T14 immunoblot
T3 sequence (Q99640 1-499): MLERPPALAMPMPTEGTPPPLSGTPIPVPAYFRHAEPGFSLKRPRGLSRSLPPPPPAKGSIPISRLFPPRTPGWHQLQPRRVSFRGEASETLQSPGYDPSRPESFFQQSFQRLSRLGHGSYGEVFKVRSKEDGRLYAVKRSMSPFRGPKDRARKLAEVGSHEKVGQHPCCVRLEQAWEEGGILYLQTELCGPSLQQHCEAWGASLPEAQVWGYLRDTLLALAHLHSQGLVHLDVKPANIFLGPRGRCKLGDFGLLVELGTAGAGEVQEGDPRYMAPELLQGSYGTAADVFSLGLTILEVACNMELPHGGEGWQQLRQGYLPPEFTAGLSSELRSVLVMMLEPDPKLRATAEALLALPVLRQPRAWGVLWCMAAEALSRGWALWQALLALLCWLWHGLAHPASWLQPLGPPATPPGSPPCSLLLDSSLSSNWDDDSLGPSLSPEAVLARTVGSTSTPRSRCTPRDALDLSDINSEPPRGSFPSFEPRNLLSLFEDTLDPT
In short: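 Confluent OVCAR 3 cells treated with a compound concentration range for 20 h at 37 °C. Lysates analysed by automated capillary immunoblot for CDK1 phospho-T14, with vinculin, fluorescence detection; IC50 by regression.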

OVCAR 3 cells = test: Cancer cell line proliferation assay, ATP-based cell viability (Cell Titre Glow), OVCAR 3 (CCNE1-amplified); settings: KYSE30 (normal CCNE1) GI50 vs. OVCAR 3 (CCNE1-amplified) GI50
In short: (§2)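 Proliferation of KYSE-30 (normal CCNE1) and CCNE1-amplified OVCAR 3 ovarian cancer cells treated with PKMYT1 inhibitors, read by Cell Titre Glow luminescence. GI50 is the concentration giving 50% growth inhibition.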

KYSE-30 cells = test: Cancer cell line proliferation assay, ATP-based cell viability (Cell Titre Glow), KYSE-30 (normal CCNE1); settings: Homo sapiens, KYSE-30 cells (normal CCNE1), concentration that achieves 50% cell growth proliferation inhibition, read-out: KYSE30 Gl50
In short: as §2

[4] = 15 nM PKMYT1 kinase domain, 500 µM ATP, 60 minutes at 26° C., banded
[5] = 15 nM WEE1, 60 minutes at 26° C., banded
[6] = banded, ">N" = at least in this band but could be higher
[7] = PKMYT1 kinase domain 15 nM, banded values

T2 sequence (P30291 whole entry): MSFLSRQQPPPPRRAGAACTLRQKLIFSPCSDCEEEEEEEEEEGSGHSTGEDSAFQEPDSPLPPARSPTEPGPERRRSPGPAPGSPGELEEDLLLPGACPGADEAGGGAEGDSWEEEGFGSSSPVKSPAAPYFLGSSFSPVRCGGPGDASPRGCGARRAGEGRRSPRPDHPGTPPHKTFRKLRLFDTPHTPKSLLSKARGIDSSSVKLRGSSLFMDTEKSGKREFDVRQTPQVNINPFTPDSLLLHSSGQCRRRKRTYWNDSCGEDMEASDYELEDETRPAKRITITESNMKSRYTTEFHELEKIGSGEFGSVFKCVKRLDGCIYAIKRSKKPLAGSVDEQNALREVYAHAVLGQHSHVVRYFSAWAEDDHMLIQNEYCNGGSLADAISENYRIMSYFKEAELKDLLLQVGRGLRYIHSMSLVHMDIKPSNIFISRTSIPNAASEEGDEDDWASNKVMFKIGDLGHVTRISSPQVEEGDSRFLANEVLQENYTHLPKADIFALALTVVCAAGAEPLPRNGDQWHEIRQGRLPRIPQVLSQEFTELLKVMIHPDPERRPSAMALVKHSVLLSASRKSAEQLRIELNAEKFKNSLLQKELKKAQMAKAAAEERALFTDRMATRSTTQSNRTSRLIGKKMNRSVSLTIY

| Structure (SMILES) | IC50 (Human PKMYT1; [4]) [nM] | IC50 (WEE1; [5]) [µM] | PKMYT1 vs. WEE1 selectivity (WEE1; [6]) | IC50 (Human PKMYT1; [7]) [nM] | IC50 [3] [nM] | IC50 (WEE1; WEE1 15 nM, banded values) [µM] | PKMYT1 vs. WEE1 selectivity (WEE1; banded) | Selectivity Ratio Wt vs. CL7 [1] | GI50 [1] [nM] | GI50 [2] [nM] | Selectivity ratio KYSE30 Gl50 vs. OVCAR3 Gl50 (OVCAR 3 cells) | GI50 (KYSE-30 cells) [µM] |
| --- | --- | --- | --- | --- | --- | --- | --- | --- | --- | --- | --- | --- |
| Cc1ccc(O)c(C)c1NC(=O)c1cnc(Nc2ccn(CC(=O)NCCN(C)C)n2)s1 [BAA-160] | 50 to 1000 | > 11 | X (100-<1000 fold) | – | – | – | – | X (3-<10 fold) | 500 to 3000 | 3000 to 10000 | – | – |
| Cc1ccc(O)c(C)c1NC(=O)c1cnc(Nc2ccn(CC(=O)OC(C)C)n2)s1 [BAA-209, Isopropyl 2-[3-[[5-[(3-hydroxy-2,6-dimethyl-phenyl)carbamoyl]thiazol-2-yl]amino]pyrazol-1-yl]acetate] | < 50 | > 11 | X (100-<1000 fold) | – | – | – | – | >X (3-<10 fold) | < 500 | 500 to 3000 | – | – |
| Cc1ccc(O)c(C)c1NC(=O)c1cnc(Nc2ccn(CC(=O)NC3CCNCC3)n2)s1 [BAA-224, N-(3-hydroxy-2,6-dimethylphenyl)-2-((1-(2-oxo-2-(piperidin-4-ylamino)ethyl)-1H-pyrazol-3-yl)amino)thiazole-5-carboxamide] | < 50 | > 11 | X (100-<1000 fold) | – | – | – | – | Z (>30 fold) | < 500 | 3000 to 10000 | – | – |
| Cc1ccc(O)c(C)c1NC(=O)c1cnc(Nc2ccc3ccncc3n2)s1 [BAA-597, 2-((1,7-naphthyridin-2-yl)amino)-N-(3-hydroxy-2,6-dimethylphenyl)thiazole-5-carboxamide] | – | – | – | < 50 | 100 to 1000 | > 11 | X (100-<1000 fold) | – | – | – | Y (>20 fold) | 0.5 to 5 |
| COC[C@H]1CCCN1C(=O)Cn1cc(C)c(Nc2ncc(C(=O)Nc3c(C)ccc(O)c3C)s2)n1 [BAA-599, N-(3-Hydroxy-2,6-dimethyl-phenyl)-2-[[1-[2-[(2R)-2-(methoxymethyl)pyrrolidin-1-yl]-2-oxo-ethyl]-4-methyl-pyrazol-3-yl]amino]thiazole-5-carboxamide] | – | – | – | < 50 | 100 to 1000 | 1 to 11 | X (100-<1000 fold) | – | – | – | Y (>20 fold) | > 5 |
| Cc1cn(CC(=O)N2CCCC2c2ccccc2)nc1Nc1ncc(C(=O)Nc2c(C)ccc(O)c2C)s1 (stereo not drawn) [BAA-600, N-(3-hydroxy-2,6-dimethylphenyl)-2-((4-methyl-1-(2-oxo-2-(2-phenylpyrrolidin-1-yl)ethyl)-1H-pyrazol-3-yl)amino)thiazole-5-carboxamide] | – | – | – | < 50 | < 100 | 1 to 11 | X (100-<1000 fold) | – | – | – | Y (>20 fold) | 0.5 to 5 |
| Cc1cn(CC(=O)N2CCCC2(C)C)nc1Nc1ncc(C(=O)Nc2c(C)ccc(O)c2C)s1 [BAA-605, 2-((1-(2-(2,2-dimethylpyrrolidin-1-yl)-2-oxoethyl)-4-methyl-1H-pyrazol-3-yl)amino)-N-(3-hydroxy-2,6-dimethylphenyl)thiazole-5-carboxamide] | – | – | – | < 50 | < 100 | 1 to 11 | X (100-<1000 fold) | – | – | – | Y (>20 fold) | > 5 |

Second part, led by results:

| IC50 (Human PKMYT1; [4]) [nM] | IC50 (WEE1; [5]) [µM] | PKMYT1 vs. WEE1 selectivity (WEE1; [6]) | IC50 (Human PKMYT1; [7]) [nM] | IC50 [3] [nM] | IC50 (WEE1; WEE1 15 nM, banded values) [µM] | PKMYT1 vs. WEE1 selectivity (WEE1; banded) | Structure (SMILES) | Selectivity Ratio Wt vs. CL7 [1] | GI50 [1] [nM] | GI50 [2] [nM] | Selectivity ratio KYSE30 Gl50 vs. OVCAR3 Gl50 (OVCAR 3 cells) | GI50 (KYSE-30 cells) [µM] |
| --- | --- | --- | --- | --- | --- | --- | --- | --- | --- | --- | --- | --- |
| 50 to 1000 | > 11 | >X (100-<1000 fold) | – | – | – | – | Cc1ccc(O)c(C)c1NC(=O)c1cnc(NCCCNC(=O)OC(C)(C)C)s1 [BAA-071, tert-butyl N-[3-[5-[(3-hydroxy-2,6-dimethyl-phenyl)carbamoyl]thiazol-2-yllamino]propyl]carbamate] | X (3-<10 fold) | 500 to 3000 | > 10000 | – | – |
| 50 to 1000 | > 11 | >X (100-<1000 fold) | – | – | – | – | Cc1ccc(O)c(C)c1NC(=O)c1cnc(Nc2ccn([C@@H]3CCN(Cc4ccccc4)C3)n2)s1 [BAA-113, 2-[[1-[(3R)-1-Benzylpyrrolidin-3-yl]pyrazol-3-yl]amino]-N-(3-hydroxy-2,6-dimethyl-phenyl)thiazole-5-carboxamide] | Y (10-30 fold) | 500 to 3000 | 3000 to 10000 | – | – |
| < 50 | > 11 | Y (1000-5000 fold) | – | – | – | – | Cc1ccc(O)c(C)c1NC(=O)c1cnc(Nc2ccn(CC(=O)N3CCC(C)(C)CC3)n2)s1 [BAA-137] | X (3-<10 fold) | 500 to 3000 | 500 to 3000 | – | – |
| < 50 | > 11 | Y (1000-5000 fold) | – | – | – | – | Cc1ccc(O)c(C)c1NC(=O)c1cnc(Nc2ccn(CC(=O)N3CCN(CC4CC4)CC3)n2)s1 [BAA-183] | X (3-<10 fold) | < 500 | 3000 to 10000 | – | – |
| < 50 | > 11 | Y (1000-5000 fold) | – | – | – | – | Cc1ccc(O)c(C)c1NC(=O)c1cnc(Nc2ccn(CC(=O)NC3CC3)n2)s1 [BAA-190] | X (3-<10 fold) | 500 to 3000 | 3000 to 10000 | – | – |
| – | – | – | < 50 | 100 to 1000 | > 11 | Y (1000-5000 fold) | Cc1ccc(O)c(C)c1NC(=O)c1cnc(Nc2ccc3ncccc3n2)s1 [BAA-596, 2-((1,5-naphthyridin-2-yl)amino)-N-(3-hydroxy-2,6-dimethylphenyl)thiazole-5-carboxamide] | – | – | – | Y (>20 fold) | 0.5 to 5 |
| – | – | – | < 50 | < 100 | 1 to 11 | X (100-<1000 fold) | Cc1cn(CC(=O)N2CCC2C)nc1Nc1ncc(C(=O)Nc2c(C)ccc(O)c2C)s1 (stereo not drawn) [BAA-598, N-(3-hydroxy-2,6-dimethylphenyl)-2-((4-methyl-1-(2-(2-methylazetidin-1-yl)-2-oxoethyl)-1H-pyrazol-3-yl)amino)thiazole-5-carboxamide] | – | – | – | Y (>20 fold) | 0.5 to 5 |
| – | – | – | < 50 | < 100 | 1 to 11 | X (100-<1000 fold) | COCC1(N(C)C(=O)Cn2cc(C)c(Nc3ncc(C(=O)Nc4c(C)ccc(O)c4C)s3)n2)CC1 [BAA-607] | – | – | – | Y (>20 fold) | > 5 |
